Assay results: PubChem BioAssay AID1259407 (Chemical Carcinogenesis Research Information System (CCRIS), 2018)
Activity calls are given as the source filed them. No rule for the calls is given here.

Tested on: CCRIS mutagenicity, Ames/micronucleus/aberration tests
Experiment: CCRIS mutagenicity studies
[1] = Test System: AMES SALMONELLA TYPHIMURIUM, Strain/Indicator: TA98, Metabolic Activation: NONE, Method: STANDARD PLATE
[2] = Test System: AMES SALMONELLA TYPHIMURIUM, Strain/Indicator: TA100, Metabolic Activation: NONE, Method: STANDARD PLATE
[3] = Test System: AMES SALMONELLA TYPHIMURIUM, Strain/Indicator: TA100, Metabolic Activation: RAT, LIVER, S-9, AROCLOR 1254, Method: STANDARD PLATE
[4] = Test System: AMES SALMONELLA TYPHIMURIUM, Strain/Indicator: TA98, Metabolic Activation: NONE, Method: PREINCUBATION
[5] = Test System: AMES SALMONELLA TYPHIMURIUM, Strain/Indicator: TA100, Metabolic Activation: NONE, Method: PREINCUBATION

With `OC(c1ccc(Cl)cc1)(c1cncnc1)c1ccccc1Cl` (stereo unspecified) the mutagenic call (End Point: In vitro chromosomal aberrations, Test System: Human lymphocytes, Metabolic Activation: None) was “inactive; negative”, the mutagenic call (End Point: In vitro chromosomal aberrations, Test System: Human lymphocytes, Metabolic Activation: S-9) was “inactive; negative” and the mutagenic call (End Point: In vivo micronucleus, Test System: Bone marrow polychromatic erythrocytes, Species: Mouse, Strain/Sex: Not specified/Male, Route: Oral) was “active; positive. statistically significant increase at 24 hr but no effects at 48 or 72”. For the same compound, the mutagenic call (End Point: In vivo micronucleus, Test System: Bone marrow polychromatic erythrocytes, Species: Rat, Strain/Sex: Sprague-Dawley (Male and female), Route: Oral) was “inactive; negative”, the mutagenic call (Test System: Ames Salmonella typhimurium, Strain/Indicator: TA98, Metabolic Activation: None, Method: Plate incorporation) was “inactive; negative” and the mutagenic call (Test System: Ames Salmonella typhimurium, Strain/Indicator: TA98, Metabolic Activation: Rat, Liver, S-9, Method: Plate incorporation) was “inactive; negative”. For the same compound, the mutagenic call (Test System: Ames Salmonella typhimurium, Strain/Indicator: TA100, Metabolic Activation: None, Method: Plate incorporation) was “inactive; negative”, the mutagenic call (Test System: Ames Salmonella typhimurium, Strain/Indicator: TA100, Metabolic Activation: Rat, Liver, S-9, Method: Plate incorporation) was “inactive; negative” and the mutagenic call (Test System: Ames Salmonella typhimurium, Strain/Indicator: TA1535, Metabolic Activation: None, Method: Plate incorporation) was “inactive; negative”. For the same compound, the mutagenic call (Test System: Ames Salmonella typhimurium, Strain/Indicator: TA1535, Metabolic Activation: Rat, Liver, S-9, Method: Plate incorporation) was “inactive; negative”, the mutagenic call (Test System: Ames Salmonella typhimurium, Strain/Indicator: TA1537, Metabolic Activation: None, Method: Plate incorporation) was “inactive; negative” and the mutagenic call (Test System: Ames Salmonella typhimurium, Strain/Indicator: TA1537, Metabolic Activation: Rat, Liver, S-9, Method: Plate incorporation) was “inactive; negative”. The mutagenic call (Test System: E. coli, Strain/Indicator: WP2uvrA-, Metabolic Activation: None, Method: Plate incorporation) was “inactive; negative” and the mutagenic call (Test System: E. coli, Strain/Indicator: WP2uvrA-, Metabolic Activation: Rat, Liver, S-9, Method: Plate incorporation) was “inactive; negative”.

With `O[C@@H]1C=Cc2c(ccc3c2ccc2ccccc23)[C@H]1O` the mutagenic call [1] was “inactive; negative”, the mutagenic call (Test System: AMES SALMONELLA TYPHIMURIUM, Strain/Indicator: TA100, Metabolic Activation: EPITHELIAL CELL-MEDIATED, AROCLOR 1254, Method: PREINCUBATION) was “active; positive” and the mutagenic call (Test System: AMES SALMONELLA TYPHIMURIUM, Strain/Indicator: TA100, Metabolic Activation: EPITHELIAL CELL-MEDIATED, Method: PREINCUBATION) was “inactive; negative”. The mutagenic call (Test System: AMES SALMONELLA TYPHIMURIUM, Strain/Indicator: TA100, Metabolic Activation: KUPFFER CELL-MEDIATED, AROCLOR 1254, Method: PREINCUBATION) was “active; positive”, the mutagenic call (Test System: AMES SALMONELLA TYPHIMURIUM, Strain/Indicator: TA100, Metabolic Activation: KUPFFER CELL-MEDIATED, Method: PREINCUBATION) was “inactive; negative” and the mutagenic call [2] was “inactive; negative”. The mutagenic call (Test System: AMES SALMONELLA TYPHIMURIUM, Strain/Indicator: TA100, Metabolic Activation: PARENCHYMAL CELL-MEDIATED, AROCLOR 1254, Method: PREINCUBATION) was “active; positive”, the mutagenic call (Test System: AMES SALMONELLA TYPHIMURIUM, Strain/Indicator: TA100, Metabolic Activation: PARENCHYMAL CELL-MEDIATED, NADPH, Method: PREINCUBATION) was “active; positive” and the mutagenic call (Test System: AMES SALMONELLA TYPHIMURIUM, Strain/Indicator: TA100, Metabolic Activation: PARENCHYMAL CELL-MEDIATED, Method: PREINCUBATION) was “inactive; negative”. The mutagenic call [3] was “active; positive”.

With `C1=Cc2c3ccccc3cc3cc4ccccc4c1c23` the mutagenic call [1] was “active; positive” and the mutagenic call (Test System: AMES SALMONELLA TYPHIMURIUM, Strain/Indicator: TA98, Metabolic Activation: RAT, LIVER, S-9, AROCLOR 1254 (0.127 OR 1.27 MG S-9 PROTEIN), Method: STANDARD PLATE) was “active; positive”.

With `C=C(Br)CBr` the mutagenic call (Test System: AMES SALMONELLA TYPHIMURIUM, Strain/Indicator: TA100, Metabolic Activation: RAT, LIVER, MICROSOMES, PHENOBARBITAL, NADPH COFACTORS, Method: STANDARD PLATE) was “active; positive” and the mutagenic call (Test System: AMES SALMONELLA TYPHIMURIUM, Strain/Indicator: TA100, Metabolic Activation: RAT, LIVER, MICROSOMES, PHENOBARBITAL, Method: STANDARD PLATE) was “active; positive”.

In the case of `C=Cc1ccc(N)cc1`, the mutagenic call (Test System: AMES SALMONELLA TYPHIMURIUM, Strain/Indicator: TA98, Metabolic Activation: HAMSTER, LIVER, S-9, AROCLOR 1254, Method: STANDARD PLATE) is reported as “active; positive”, the mutagenic call [1] is reported as “inactive; negative” and the mutagenic call (Test System: AMES SALMONELLA TYPHIMURIUM, Strain/Indicator: TA98, Metabolic Activation: RAT, LIVER, S-9, AROCLOR 1254, Method: STANDARD PLATE) is reported as “inactive; negative”. The mutagenic call (Test System: AMES SALMONELLA TYPHIMURIUM, Strain/Indicator: TA100, Metabolic Activation: HAMSTER, LIVER, S-9, AROCLOR 1254, Method: STANDARD PLATE) was “active; positive”, the mutagenic call [2] was “inactive; negative” and the mutagenic call [3] was “inactive; negative”. The mutagenic call (Test System: MOUSE LYMPHOMA, Strain/Indicator: L5178Y (TK+/TK-), Metabolic Activation: NONE, Method: SUSPENSION/PLATE) was “inactive; positive. reevaluation of results: negative” and the mutagenic call (Test System: MOUSE LYMPHOMA, Strain/Indicator: L5178Y (TK+/TK-), Metabolic Activation: RAT, LIVER, S-9, AROCLOR 1254, Method: SUSPENSION/PLATE) was “inactive; positive. reevaluation of results: negative”.

`CC(C)Sc1cc(Cc2ccc(N)c(SC(C)C)c2)ccc1N` was tested, and the mutagenic call [4] was “inactive; negative”, the mutagenic call (Test System: AMES SALMONELLA TYPHIMURIUM, Strain/Indicator: TA98, Metabolic Activation: RAT, LIVER, S-9, PCB, Method: PREINCUBATION) was “active; positive” and the mutagenic call [5] was “inactive; negative”. The mutagenic call (Test System: AMES SALMONELLA TYPHIMURIUM, Strain/Indicator: TA100, Metabolic Activation: RAT, LIVER, S-9, PCB, Method: PREINCUBATION) was “active; positive”.

`O=Cc1cn([C@@H]2O[C@H](CO)[C@@H](O)[C@H]2O)c(=O)[nH]c1=O` was tested, and the mutagenic call (Test System: CHINESE HAMSTER V-79, Strain/Indicator: V-79 (HPRT)/6-THIOGUANINE, Metabolic Activation: NONE, Method: STANDARD PLATE) was “inactive; negative”.

`CC(=O)Nc1ccc(NC(C)=O)cc1` was tested, and the mutagenic call (Test System: Ames Salmonella typhimurium, Strain/Indicator: TA98, Metabolic Activation: None, Method: Standard Plate) was “inactive; negative”, the mutagenic call (Test System: Ames Salmonella typhimurium, Strain/Indicator: TA100, Metabolic Activation: None, Method: Standard Plate) was “inactive; negative” and the mutagenic call (Test System: Ames Salmonella typhimurium, Strain/Indicator: TA102, Metabolic Activation: None, Method: Standard Plate) was “inactive; negative”. For the same compound, the mutagenic call (Test System: Ames Salmonella typhimurium, Strain/Indicator: TA1535, Metabolic Activation: None, Method: Standard Plate) was “inactive; negative” and the mutagenic call (Test System: Ames Salmonella typhimurium, Strain/Indicator: TA1537, Metabolic Activation: None, Method: Standard Plate) was “inactive; negative”.

In the case of `CCOCn1cc(F)c(=O)n(C(=O)c2cccc(C(=O)Oc3nc(OC(=O)c4ccccc4)ccc3C#N)c2)c1=O`, the mutagenic call [4] is reported as “inactive; negative”, the mutagenic call (Test System: AMES SALMONELLA TYPHIMURIUM, Strain/Indicator: TA98, Metabolic Activation: S-9, Method: PREINCUBATION) is reported as “inactive; negative” and the mutagenic call [5] is reported as “inactive; negative”. For the same compound, the mutagenic call (Test System: AMES SALMONELLA TYPHIMURIUM, Strain/Indicator: TA100, Metabolic Activation: S-9, Method: PREINCUBATION) was “inactive; negative”, the mutagenic call (Test System: AMES SALMONELLA TYPHIMURIUM, Strain/Indicator: TA1535, Metabolic Activation: NONE, Method: PREINCUBATION) was “inactive; negative” and the mutagenic call (Test System: AMES SALMONELLA TYPHIMURIUM, Strain/Indicator: TA1535, Metabolic Activation: S-9, Method: PREINCUBATION) was “inactive; negative”. The mutagenic call (Test System: AMES SALMONELLA TYPHIMURIUM, Strain/Indicator: TA1537, Metabolic Activation: NONE, Method: PREINCUBATION) was “inactive; negative”, the mutagenic call (Test System: AMES SALMONELLA TYPHIMURIUM, Strain/Indicator: TA1537, Metabolic Activation: S-9, Method: PREINCUBATION) was “inactive; negative” and the mutagenic call (Test System: E. COLI, Strain/Indicator: WP2 UVRA, Metabolic Activation: NONE, Method: PREINCUBATION) was “inactive; negative”. For the same compound, the mutagenic call (Test System: E. COLI, Strain/Indicator: WP2 UVRA, Metabolic Activation: S-9, Method: PREINCUBATION) was “inactive; negative”.
